Reference: ChEMBL document CHEMBL3585294, “LAT Transport Inhibitors from Pittosporum venulosum Identified by NMR Fingerprint Analysis” (J Nat Prod, 2015)
pIC50: −log10 of the molar value.

Experiment: Inhibition of LAT in human LNCAP cells assessed as inhibition of [3H]-L-leucine transport by liquid scintillation counting analysis
Assay type: cell-based

SMILES | pIC50
NC1(C(=O)O)CC2CCC1C2 (stereo not given) | 2.39
C/C=C(/C)C(=O)O[C@H]1[C@@H](O)[C@@H](C)O[C@@H](OC(C)(C)[C@H]2CC=C(C)CC2)[C@@H]1OC(C)=O | 4.54
CC(=O)O[C@H]1[C@H](OC(C)(C)[C@H]2CC=C(C)CC2)O[C@H](C)[C@H](O)[C@@H]1OC(=O)C=C(C)C | 5.09

Results, then the molecule that gave them:

pIC50 | SMILES
4.94 | CC[C@H](C)C(=O)O[C@H]1[C@@H](O)[C@@H](C)O[C@@H](OC(C)(C)[C@H]2CC=C(C)CC2)[C@@H]1OC(C)=O
4.40 | CC[C@H](C)C(=O)O[C@@H]1[C@H](O)[C@@H](OC(C)=O)[C@H](OC(C)(C)[C@H]2CC=C(C)CC2)O[C@@H]1C
